Results on one molecule are retold here after US9073863B2, “Cyanoquinoline compounds having activity in correcting mutant-CFTR processing and increasing ion transport and uses thereof” (The Regents of the University of California, priority 2011, dated 2015).

Type in all cases: cell-based
Test [1] deals with T1, ΔF508-CFTR (Homo sapiens, UniProt P13569, DEL508-508).
T1 construct: expressed in transfected cells; host or cells: Fischer rat thyroid (FRT) epithelial cells, stably transfected
Description: Short-circuit current potentiator assay in ΔF508-CFTR expressing FRT cells after low-temperature rescue. The conditions noted are these: 27° C. for 24 h prior to measurement, in the presence of forskolin; read-out: Apparent EC50 for potentiator activity as measured by short-circuit current. The protocol:
Short-circuit current measurements. ΔF508-CFTR-expressing FRT cells were cultured on Snapwell inserts for 7-9 days. For corrector testing, test compounds were incubated with FRT cells for 18-24 h at 37° C. prior to measurements. For potentiator testing, the FRT cells were incubated for 18-24 h at 27° C. prior to measurements. The basolateral solution contained 130 mM NaCl, 2.7 mM KCl, 1.5 mM KH2PO4, 1 mM CaCl2, 0.5 mM MgCl2, 10 mM glucose, and 10 mM Na-HEPES (pH 7.3). In the apical bathing solution, 65 mM NaCl was replaced by Na gluconate, and CaCl2 was increased to 2 mM. Solutions were bubbled with air and maintained at 37° C. […]
Short-circuit current measurements were performed to further characterize Compound 22 potentiator activity in which apical membrane chloride current was measured in ΔF508-CFTR expressing FRT cells, after low-temperature rescue, in response to Compound 22 additions. […]
Short-circuit current was measured in an electrophysiology assay to verify corrector activity. Apical membrane chloride current was measured in ΔF508-CFTR expressing FRT cells after basolateral membrane permeabilization and in the presence of a transepithelial chloride gradient. […] To assay potentiator activity apical membrane chloride current was measured after low-temperature rescue, in response to CP-3 addition. […]

Test [2] has as its target T1, ΔF508-CFTR. Description: Short-circuit current (apical membrane chloride current) corrector assay in ΔF508-CFTR expressing FRT cells. The protocol:
Short-circuit current measurements. ΔF508-CFTR-expressing FRT cells were cultured on Snapwell inserts for 7-9 days. For corrector testing, test compounds were incubated with FRT cells for 18-24 h at 37° C. prior to measurements. For potentiator testing, the FRT cells were incubated for 18-24 h at 27° C. prior to measurements. The basolateral solution contained 130 mM NaCl, 2.7 mM KCl, 1.5 mM KH2PO4, 1 mM CaCl2, 0.5 mM MgCl2, 10 mM glucose, and 10 mM Na-HEPES (pH 7.3). In the apical bathing solution, 65 mM NaCl was replaced by Na gluconate, and CaCl2 was increased to 2 mM. Solutions were bubbled with air and maintained at 37° C. The basolateral membrane was permeabilized with 250 μg/ml amphotericin B. Hemichambers were connected to a DVC-1000 voltage clamp (World Precision Instruments Inc.) via Ag/AgCl electrodes and 1 M KCl agar bridges for recording of short-circuit current.
Short-circuit current was measured as a definitive electrophysiological assay to verify Compound 22 corrector action. Apical membrane chloride current was measured in ΔF508-CFTR expressing FRT cells after basolateral membrane permeabilization and in the presence of a transepithelial chloride gradient (apical, 65 mM; basolateral, 130 mM). In FIG. 3C, incubation with Corr-4a (5 μM) is shown as reference (right). Forskolin (20 μM), genistein (50 μM) and CFTRinh-172 (10 μM) were added where indicated. […] FIG. 3D summarizes Compound 22 concentration dependence data from short-circuit current studies. […]
Short-circuit current was measured in an electrophysiology assay to verify corrector activity. Apical membrane chloride current was measured in ΔF508-CFTR expressing FRT cells after basolateral membrane permeabilization and in the presence of a transepithelial chloride gradient. […] To assay potentiator activity apical membrane chloride current was measured after low-temperature rescue, in response to CP-3 addition. CP-3 concentration-dependent increases in apical membrane current were measured in the presence of 5 μM forskolin. […]

For test [3], the target named is T1, ΔF508-CFTR. Kind of test: Corrector assay by YFP/iodide fluorescence quenching in ΔF508-CFTR expressing A549 cells. The conditions noted are these: 24 h at 37° C. The protocol: FIGS. 6A and 6B show graphs of Compound 22 activity in G551D-CFTR expressing FRT cells and DF508-CFTR expressing […] cells, according to embodiments of the present disclosure. […] (top) or 27° C. (bottom) for 24 h prior to iodide influx measurement, according to embodiments of the present disclosure. Graphs are representative of 3 sets of measurements.
To test whether Compound 22 is active in a different cell background, potentiator and corrector assays were performed in ΔF508-CFTR transfected A549 cells, which are of human lung epithelial origin. […] Apparent EC50 for Compound 22 potentiator activity was about 8 μM (FIG. 6B). […] (FIG. 6C, top). Compound 22 was further tested for corrector activity in A549 cells under the low-temperature synergy condition; however, DF508-CFTR was fully activated by forskolin ([…]) and genistein ([…]) in this cell model (FIG. 6C, bottom).

The target of test [4] is T2, G551D-CFTR (Homo sapiens, UniProt P13569, G551D).
T2 construct: expressed in transfected cells; host or cells: Fischer rat thyroid (FRT) epithelial cells, stably transfected
T2 sequence (P13569 whole entry G551D): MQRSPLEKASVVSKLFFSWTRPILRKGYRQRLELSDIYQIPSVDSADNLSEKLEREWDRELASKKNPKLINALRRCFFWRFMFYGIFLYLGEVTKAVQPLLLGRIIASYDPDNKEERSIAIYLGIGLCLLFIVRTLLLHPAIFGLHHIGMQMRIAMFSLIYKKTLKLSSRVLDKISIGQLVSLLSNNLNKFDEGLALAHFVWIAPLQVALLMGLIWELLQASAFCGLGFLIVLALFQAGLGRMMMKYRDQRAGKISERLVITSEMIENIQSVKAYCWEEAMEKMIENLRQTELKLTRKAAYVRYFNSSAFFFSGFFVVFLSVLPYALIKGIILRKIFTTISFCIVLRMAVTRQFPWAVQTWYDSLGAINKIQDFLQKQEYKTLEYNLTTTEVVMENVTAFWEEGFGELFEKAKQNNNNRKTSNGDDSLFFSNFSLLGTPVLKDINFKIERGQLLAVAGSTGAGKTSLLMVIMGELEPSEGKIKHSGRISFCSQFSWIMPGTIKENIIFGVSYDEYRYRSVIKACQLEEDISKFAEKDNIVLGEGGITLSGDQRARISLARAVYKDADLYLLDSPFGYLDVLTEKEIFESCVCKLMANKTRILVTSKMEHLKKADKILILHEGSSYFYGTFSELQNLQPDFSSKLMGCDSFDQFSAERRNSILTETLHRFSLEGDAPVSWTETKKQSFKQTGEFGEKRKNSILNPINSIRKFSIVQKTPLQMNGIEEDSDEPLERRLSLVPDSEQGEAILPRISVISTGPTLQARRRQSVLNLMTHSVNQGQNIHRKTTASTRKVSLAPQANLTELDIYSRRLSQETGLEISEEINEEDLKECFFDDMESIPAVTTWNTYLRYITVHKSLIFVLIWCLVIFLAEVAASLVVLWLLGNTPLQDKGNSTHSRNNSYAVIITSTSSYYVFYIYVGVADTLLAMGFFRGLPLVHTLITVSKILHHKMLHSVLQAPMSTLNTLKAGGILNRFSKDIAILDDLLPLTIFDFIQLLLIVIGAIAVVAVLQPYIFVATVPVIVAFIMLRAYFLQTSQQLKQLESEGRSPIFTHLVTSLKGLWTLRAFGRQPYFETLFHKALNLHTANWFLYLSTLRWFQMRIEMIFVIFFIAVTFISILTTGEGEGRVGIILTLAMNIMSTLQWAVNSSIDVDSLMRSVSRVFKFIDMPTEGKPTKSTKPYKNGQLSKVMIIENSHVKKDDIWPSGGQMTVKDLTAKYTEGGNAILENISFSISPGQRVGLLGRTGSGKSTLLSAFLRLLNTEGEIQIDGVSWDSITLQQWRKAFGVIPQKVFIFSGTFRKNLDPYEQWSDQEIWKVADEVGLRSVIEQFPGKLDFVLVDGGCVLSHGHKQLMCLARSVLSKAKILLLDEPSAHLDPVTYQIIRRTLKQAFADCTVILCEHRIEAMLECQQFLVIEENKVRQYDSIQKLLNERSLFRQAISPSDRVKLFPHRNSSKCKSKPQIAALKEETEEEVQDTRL
Description: Short-circuit current in FRT cells expressing G551D-CFTR. The conditions noted are these: in the presence of forskolin, vs genistein. The protocol: (§1) Potentiator studies were also performed in FRT cells expressing G551D-CFTR, a CF-causing CFTR mutation with defective channel gating but not plasma membrane trafficking. […] Where indicated, genistein (100 μM) and CFTRinh-172 (10 μM) were added. Graphs are representative of 3 sets of measurements. […] Measurements were made in the presence of 20 μM forskolin.

For test [5], the target named is T2, G551D-CFTR. Kind of test: Plate reader assay of G551D-CFTR chloride conductance in FRT cells. The following applies: in the presence of 20 μM forskolin. As for the experimental part: as §1
Representative fluorescence quenching curves (FIG. 6B (top)) shown with deduced Compound 22 and genistein concentration dependence (FIG. 6B (bottom), SEM, n=4). Fluorescence plate reader assays in FIG. 6B confirmed that Compound 22 activated G551D-CFTR in the presence of forskolin, with lower maximal efficacy than genistein.

T1 sequence (P13569 with tags, fused parts or gaps DEL508-508): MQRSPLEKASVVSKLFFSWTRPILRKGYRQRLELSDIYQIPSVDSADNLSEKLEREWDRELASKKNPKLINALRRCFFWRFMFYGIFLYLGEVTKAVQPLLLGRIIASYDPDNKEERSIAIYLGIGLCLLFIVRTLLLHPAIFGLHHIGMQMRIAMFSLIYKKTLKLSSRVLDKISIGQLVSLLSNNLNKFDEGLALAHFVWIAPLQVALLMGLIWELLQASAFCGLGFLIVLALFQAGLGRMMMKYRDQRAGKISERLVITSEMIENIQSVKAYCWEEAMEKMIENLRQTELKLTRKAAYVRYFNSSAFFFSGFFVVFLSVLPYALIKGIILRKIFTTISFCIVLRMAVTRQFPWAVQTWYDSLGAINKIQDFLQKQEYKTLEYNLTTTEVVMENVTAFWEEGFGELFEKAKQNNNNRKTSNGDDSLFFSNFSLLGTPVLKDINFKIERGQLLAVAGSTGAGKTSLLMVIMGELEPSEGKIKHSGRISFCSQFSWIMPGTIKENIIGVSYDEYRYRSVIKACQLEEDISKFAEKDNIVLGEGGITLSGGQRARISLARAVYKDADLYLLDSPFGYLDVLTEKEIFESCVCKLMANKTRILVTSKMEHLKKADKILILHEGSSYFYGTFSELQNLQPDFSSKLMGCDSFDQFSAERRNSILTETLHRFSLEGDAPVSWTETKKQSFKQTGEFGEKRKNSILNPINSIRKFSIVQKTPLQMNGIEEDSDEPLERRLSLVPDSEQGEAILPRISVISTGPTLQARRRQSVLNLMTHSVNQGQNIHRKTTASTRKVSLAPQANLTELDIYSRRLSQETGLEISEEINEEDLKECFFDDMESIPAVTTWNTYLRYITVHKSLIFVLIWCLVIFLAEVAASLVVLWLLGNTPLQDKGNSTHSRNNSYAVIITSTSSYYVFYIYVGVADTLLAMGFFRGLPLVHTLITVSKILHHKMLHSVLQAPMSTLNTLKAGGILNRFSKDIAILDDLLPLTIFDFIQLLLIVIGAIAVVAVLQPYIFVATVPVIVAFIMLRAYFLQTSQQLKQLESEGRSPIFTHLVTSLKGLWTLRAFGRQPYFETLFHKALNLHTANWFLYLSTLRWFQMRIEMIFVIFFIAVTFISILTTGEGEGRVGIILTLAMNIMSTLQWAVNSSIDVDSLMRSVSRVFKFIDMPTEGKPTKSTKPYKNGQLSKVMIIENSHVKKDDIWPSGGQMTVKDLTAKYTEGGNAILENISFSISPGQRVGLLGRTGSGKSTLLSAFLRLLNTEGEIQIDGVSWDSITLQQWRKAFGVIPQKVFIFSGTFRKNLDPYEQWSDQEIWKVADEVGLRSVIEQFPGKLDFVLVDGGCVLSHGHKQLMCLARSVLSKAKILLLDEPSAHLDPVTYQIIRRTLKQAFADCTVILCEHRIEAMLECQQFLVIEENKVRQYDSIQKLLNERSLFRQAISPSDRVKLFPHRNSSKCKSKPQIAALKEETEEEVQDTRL

Consider `COc1cccc(C(=O)NCCNc2nc3cc(C)cc(C)c3cc2C#N)c1` [Compound 22, N-(2-((3-Cyano-5,7-dimethylquinolin-2-yl)amino)ethyl)-3-methoxybenzamide], for which the values for the half-maximal effective concentration (EC50) at ΔF508-CFTR [1] and at G551D-CFTR [5] (read-out: Apparent EC50 for activation of G551-CFTR) were ~10 µM and ~5 µM, respectively. Further, the “increase in apical membrane current (corrector)” value at ΔF508-CFTR [2] (5 and 10 μM, 18-24 h incubation) is given as “comparable to that conferred by 5 μM Corr-4a”. On ΔF508-CFTR [2] (electrophysiological analysis), the “corrector and potentiator maximum efficacy” value is “comparable to those of the bithiazole Corr-4a and the flavone genistein”. For the same molecule, the “corrector activity in A549 cells, in words” value on ΔF508-CFTR [3] is listed as “little corrector activity compared to Corr-4a”. The “potentiator action on G551D-CFTR chloride current” value at G551D-CFTR [4] was “weak potentiator”. Moreover, the “maximum efficacy of G551D-CFTR activation” value at G551D-CFTR [5] is given as “lower than that of genistein”.
